In doi:10.1101/2021.09.30.462449v1 (biorxiv, 2021):

Assays:
Assay in all cases: biochemical
Conditions in all cases: read-out: % inhibition mean (Z'Lyte)
ABL1 F317I = ABL1 F317I (Homo sapiens, UniProt P00519, F317I)
AMPK A1/B1/G1 = AMPK A1/B1/G1 (Homo sapiens, UniProt Q13131)
BTK = BTK (Homo sapiens, UniProt Q06187)
CAMK4 (CaMKIV) = CAMK4 (CaMKIV) (Homo sapiens, UniProt Q16566)
CDC42 BPB (MRCKB) = CDC42 BPB (MRCKB) (Homo sapiens, UniProt Q9Y5S2)
CSK = CSK (Homo sapiens, UniProt P41240)
CSNK1A1L = CSNK1A1L (Homo sapiens, UniProt Q8N752)
CSNK1G3 (CK1 gamma 3) = CSNK1G3 (CK1 gamma 3) (Homo sapiens, UniProt Q9Y6M4)
DAPK3 (ZIPK) = DAPK3 (ZIPK) (Homo sapiens, UniProt O43293)
EEF2K = EEF2K (Homo sapiens, UniProt O00418)
EGFR (ErbB1) L858R = EGFR (ErbB1) L858R (Homo sapiens, UniProt P00533, L858R)
EPHA5 = EPHA5 (Homo sapiens, UniProt P54756)
GSK3A (GSK3 alpha) = GSK3A (GSK3 alpha) (Homo sapiens, UniProt P49840)
IRAK4 = IRAK4 (Homo sapiens, UniProt Q9NWZ3)
JAK2 JH1 JH2 = JAK2 JH1 JH2 (Homo sapiens, UniProt O60674)
JAK3 = JAK3 (Homo sapiens, UniProt P52333)
MAP2K2 (MEK2) = MAP2K2 (MEK2) (Homo sapiens, UniProt P36507)
MAPK8 (JNK1) = MAPK8 (JNK1) (Homo sapiens, UniProt P45983)
MET M1250T = MET M1250T (Homo sapiens, UniProt P08581, M1250T)
MST4 = MST4 (Homo sapiens, UniProt Q9P289)
PAK6 = PAK6 (Homo sapiens, UniProt Q9NQU5)
PHKG2 = PHKG2 (Homo sapiens, UniProt P15735)
PRKCI (PKC iota) = PRKCI (PKC iota) (Homo sapiens, UniProt P41743)
RET S891A = RET S891A (Homo sapiens, UniProt P07949, S891A)
RPS6KA6 (RSK4) = RPS6KA6 (RSK4) (Homo sapiens, UniProt Q9UK32)
RPS6KB2 (p70S6Kb) = RPS6KB2 (p70S6Kb) (Homo sapiens, UniProt Q9UBS0)
SRPK1 = SRPK1 (Homo sapiens, UniProt Q96SB4)
TEK (Tie2) = TEK (Tie2) (Homo sapiens, UniProt Q02763)

Sequence of MET M1250T (P08581 whole entry M1250T): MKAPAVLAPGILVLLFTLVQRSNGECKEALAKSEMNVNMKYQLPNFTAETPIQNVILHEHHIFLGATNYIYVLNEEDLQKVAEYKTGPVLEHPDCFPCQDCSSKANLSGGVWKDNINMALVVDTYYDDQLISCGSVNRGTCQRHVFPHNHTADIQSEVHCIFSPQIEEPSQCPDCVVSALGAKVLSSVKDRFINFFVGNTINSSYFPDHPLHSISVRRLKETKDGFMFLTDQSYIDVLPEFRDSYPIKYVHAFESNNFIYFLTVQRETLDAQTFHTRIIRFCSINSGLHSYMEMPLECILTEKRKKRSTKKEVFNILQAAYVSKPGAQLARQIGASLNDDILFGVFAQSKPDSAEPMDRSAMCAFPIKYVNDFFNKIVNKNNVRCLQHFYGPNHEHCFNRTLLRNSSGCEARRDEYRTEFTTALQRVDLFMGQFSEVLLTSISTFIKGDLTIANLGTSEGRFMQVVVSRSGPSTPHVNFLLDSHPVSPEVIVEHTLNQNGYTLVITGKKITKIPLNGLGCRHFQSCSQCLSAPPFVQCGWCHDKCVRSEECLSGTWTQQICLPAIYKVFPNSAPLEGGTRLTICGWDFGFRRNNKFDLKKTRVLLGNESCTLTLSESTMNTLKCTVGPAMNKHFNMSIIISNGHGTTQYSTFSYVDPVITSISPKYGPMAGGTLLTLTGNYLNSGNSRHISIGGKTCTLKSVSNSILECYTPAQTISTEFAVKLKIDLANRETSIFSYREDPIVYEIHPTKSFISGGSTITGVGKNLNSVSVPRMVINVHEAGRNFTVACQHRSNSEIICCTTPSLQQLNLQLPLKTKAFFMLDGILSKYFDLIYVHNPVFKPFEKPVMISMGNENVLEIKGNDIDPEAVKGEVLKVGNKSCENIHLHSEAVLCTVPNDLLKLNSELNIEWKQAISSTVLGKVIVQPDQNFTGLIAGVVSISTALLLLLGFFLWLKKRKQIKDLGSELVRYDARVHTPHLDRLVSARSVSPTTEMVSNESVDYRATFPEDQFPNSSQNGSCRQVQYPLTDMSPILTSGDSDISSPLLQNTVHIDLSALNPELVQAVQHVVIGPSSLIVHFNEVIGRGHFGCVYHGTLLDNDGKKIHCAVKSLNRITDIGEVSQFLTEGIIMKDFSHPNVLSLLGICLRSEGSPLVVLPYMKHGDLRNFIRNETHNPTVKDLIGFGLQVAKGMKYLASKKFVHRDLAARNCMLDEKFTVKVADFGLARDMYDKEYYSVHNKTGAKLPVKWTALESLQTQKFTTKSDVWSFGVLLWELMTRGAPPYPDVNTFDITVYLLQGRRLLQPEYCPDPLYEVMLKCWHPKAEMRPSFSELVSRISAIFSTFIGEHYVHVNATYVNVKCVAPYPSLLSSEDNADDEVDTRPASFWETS
Sequence of EPHA5 (P54756 whole entry): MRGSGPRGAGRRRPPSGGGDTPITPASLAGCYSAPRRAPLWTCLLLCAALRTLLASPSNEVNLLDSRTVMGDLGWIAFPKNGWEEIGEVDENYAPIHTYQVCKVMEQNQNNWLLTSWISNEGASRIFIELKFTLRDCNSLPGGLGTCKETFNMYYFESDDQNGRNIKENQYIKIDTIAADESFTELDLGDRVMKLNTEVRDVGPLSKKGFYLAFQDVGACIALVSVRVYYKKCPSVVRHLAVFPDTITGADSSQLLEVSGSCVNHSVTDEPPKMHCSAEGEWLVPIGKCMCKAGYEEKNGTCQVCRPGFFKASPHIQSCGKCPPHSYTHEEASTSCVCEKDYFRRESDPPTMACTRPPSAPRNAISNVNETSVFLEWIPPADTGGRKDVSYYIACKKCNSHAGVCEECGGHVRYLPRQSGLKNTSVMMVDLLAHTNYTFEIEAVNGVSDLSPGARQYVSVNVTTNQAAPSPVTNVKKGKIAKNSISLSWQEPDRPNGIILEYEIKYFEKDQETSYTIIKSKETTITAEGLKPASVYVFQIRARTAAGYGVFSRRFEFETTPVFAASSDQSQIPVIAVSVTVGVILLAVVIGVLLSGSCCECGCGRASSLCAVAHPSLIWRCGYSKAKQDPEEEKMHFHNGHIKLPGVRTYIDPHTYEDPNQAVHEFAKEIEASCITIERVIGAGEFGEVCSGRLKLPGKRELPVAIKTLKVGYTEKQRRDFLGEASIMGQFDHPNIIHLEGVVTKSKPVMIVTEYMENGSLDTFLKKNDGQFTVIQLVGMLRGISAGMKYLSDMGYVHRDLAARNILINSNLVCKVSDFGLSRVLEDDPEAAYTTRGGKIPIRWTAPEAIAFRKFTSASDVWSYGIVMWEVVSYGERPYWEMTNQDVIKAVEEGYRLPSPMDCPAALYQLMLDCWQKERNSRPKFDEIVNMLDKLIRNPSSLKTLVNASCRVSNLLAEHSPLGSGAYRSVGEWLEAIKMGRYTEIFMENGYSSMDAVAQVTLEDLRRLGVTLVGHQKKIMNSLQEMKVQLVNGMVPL
Sequence of CSNK1A1L (Q8N752 whole entry): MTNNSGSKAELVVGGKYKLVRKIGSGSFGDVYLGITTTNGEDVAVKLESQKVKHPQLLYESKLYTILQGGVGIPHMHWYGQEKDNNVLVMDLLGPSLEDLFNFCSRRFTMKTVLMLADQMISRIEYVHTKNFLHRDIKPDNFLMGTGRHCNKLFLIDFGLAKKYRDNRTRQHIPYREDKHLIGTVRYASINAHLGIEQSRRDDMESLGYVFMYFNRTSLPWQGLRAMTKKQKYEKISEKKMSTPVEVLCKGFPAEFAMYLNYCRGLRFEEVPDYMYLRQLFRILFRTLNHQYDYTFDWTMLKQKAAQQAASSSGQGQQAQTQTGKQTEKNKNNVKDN
Sequence of GSK3A (GSK3 alpha) (P49840 whole entry): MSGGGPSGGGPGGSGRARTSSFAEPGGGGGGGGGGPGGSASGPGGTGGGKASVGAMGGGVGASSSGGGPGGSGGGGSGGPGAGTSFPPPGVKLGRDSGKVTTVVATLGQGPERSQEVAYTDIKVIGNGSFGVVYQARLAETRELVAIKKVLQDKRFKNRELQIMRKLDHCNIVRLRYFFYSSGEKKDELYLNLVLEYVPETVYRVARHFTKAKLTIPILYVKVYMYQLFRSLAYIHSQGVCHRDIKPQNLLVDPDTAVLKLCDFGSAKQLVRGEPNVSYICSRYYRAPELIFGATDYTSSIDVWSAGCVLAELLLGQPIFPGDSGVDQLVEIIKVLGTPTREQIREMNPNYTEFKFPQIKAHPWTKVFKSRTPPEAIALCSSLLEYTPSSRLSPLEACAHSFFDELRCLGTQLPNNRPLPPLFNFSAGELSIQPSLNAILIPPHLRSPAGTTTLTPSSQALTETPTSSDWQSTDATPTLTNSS
Sequence of MST4 (Q9P289 whole entry): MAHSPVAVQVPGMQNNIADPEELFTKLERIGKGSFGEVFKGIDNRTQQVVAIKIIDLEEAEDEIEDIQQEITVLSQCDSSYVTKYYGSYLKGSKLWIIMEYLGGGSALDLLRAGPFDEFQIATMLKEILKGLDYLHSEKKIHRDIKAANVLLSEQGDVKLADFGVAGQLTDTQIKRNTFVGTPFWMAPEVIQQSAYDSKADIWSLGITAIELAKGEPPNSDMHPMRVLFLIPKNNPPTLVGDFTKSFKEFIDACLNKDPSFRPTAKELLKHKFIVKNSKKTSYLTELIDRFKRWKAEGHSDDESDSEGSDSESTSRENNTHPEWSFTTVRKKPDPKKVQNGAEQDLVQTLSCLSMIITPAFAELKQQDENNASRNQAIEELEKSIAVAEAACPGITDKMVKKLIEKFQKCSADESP
Sequence of EGFR (ErbB1) L858R (P00533 whole entry L858R): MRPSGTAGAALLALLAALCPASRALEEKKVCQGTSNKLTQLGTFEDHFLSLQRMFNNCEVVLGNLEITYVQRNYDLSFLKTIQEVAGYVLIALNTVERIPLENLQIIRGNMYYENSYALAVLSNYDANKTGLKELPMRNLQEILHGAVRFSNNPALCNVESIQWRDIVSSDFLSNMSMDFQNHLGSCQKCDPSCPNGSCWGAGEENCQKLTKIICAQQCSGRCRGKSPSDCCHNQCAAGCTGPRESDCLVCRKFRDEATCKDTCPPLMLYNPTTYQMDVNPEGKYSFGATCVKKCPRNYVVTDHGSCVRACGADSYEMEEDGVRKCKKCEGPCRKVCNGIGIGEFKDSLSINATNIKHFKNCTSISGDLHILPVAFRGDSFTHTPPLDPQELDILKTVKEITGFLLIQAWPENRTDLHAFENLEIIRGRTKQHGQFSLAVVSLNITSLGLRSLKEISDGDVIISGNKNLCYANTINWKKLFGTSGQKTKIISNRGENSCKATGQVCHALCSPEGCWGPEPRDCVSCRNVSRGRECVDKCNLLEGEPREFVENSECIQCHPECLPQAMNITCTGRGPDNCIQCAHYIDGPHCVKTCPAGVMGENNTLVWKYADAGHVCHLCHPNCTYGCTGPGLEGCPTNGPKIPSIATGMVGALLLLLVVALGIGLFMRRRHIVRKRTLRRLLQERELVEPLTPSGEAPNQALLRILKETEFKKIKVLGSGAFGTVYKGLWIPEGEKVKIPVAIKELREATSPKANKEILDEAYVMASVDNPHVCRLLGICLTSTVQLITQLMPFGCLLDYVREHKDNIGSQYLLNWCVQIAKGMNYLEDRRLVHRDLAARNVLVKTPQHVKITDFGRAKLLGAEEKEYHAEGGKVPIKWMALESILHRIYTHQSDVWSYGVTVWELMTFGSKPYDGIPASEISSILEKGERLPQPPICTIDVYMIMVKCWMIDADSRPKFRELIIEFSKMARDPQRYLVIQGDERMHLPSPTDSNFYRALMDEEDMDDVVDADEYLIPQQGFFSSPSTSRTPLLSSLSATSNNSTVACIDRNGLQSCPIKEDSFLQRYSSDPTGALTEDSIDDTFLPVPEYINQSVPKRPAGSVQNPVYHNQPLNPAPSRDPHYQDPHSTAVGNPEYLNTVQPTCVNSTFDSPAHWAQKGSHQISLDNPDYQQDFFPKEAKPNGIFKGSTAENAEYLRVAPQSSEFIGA

With `COc1ccc2nc3cc(Cl)ccc3c(Nc3cc(CN4CCCC4)c(O)c(CN4CCCC4)c3)c2n1` [Pyronaridine, 4-[(7-Chloro-2-methoxybenzo[b][1,5]naphthyridin-10-yl)amino]-2,6-bis(1-pyrrolidinylmethyl)phenol phosphate (1:4)] the inhibition at 1 µM (ABL1 F317I) was 0%, the inhibition at 1 µM (AMPK A1/B1/G1) was 5% and the inhibition at 1 µM (BTK) was 9%. The inhibition at 1 µM (CAMK4 (CaMKIV)) was -5%, the inhibition at 1 µM (CDC42 BPB (MRCKB)) was -3% and the inhibition at 1 µM (CSK) was -3%. The inhibition at 1 µM (CSNK1A1L) was 3%, the inhibition at 1 µM (CSNK1G3 (CK1 gamma 3)) was 2% and the inhibition at 1 µM (DAPK3 (ZIPK)) was 2%. The inhibition at 1 µM (EEF2K) was 1%, the inhibition at 1 µM (EGFR (ErbB1) L858R) was 5% and the inhibition at 1 µM (EPHA5) was -3%. It also gave an inhibition at 1 µM (GSK3A (GSK3 alpha)) of 4%, an inhibition at 1 µM (IRAK4) of -6% and an inhibition at 1 µM (JAK2 JH1 JH2) of -3%. The inhibition at 1 µM (JAK3) was 1%, the inhibition at 1 µM (MAP2K2 (MEK2)) was 2% and the inhibition at 1 µM (MAPK8 (JNK1)) was 3%. The inhibition at 1 µM (MET M1250T) was 0%, the inhibition at 1 µM (MST4) was 1% and the inhibition at 1 µM (PAK6) was -2%. For the same molecule, the inhibition at 1 µM (PHKG2) was -2%, the inhibition at 1 µM (PRKCI (PKC iota)) was -10% and the inhibition at 1 µM (RET S891A) was -3%. It also gave an inhibition at 1 µM (RPS6KA6 (RSK4)) of 4%, an inhibition at 1 µM (RPS6KB2 (p70S6Kb)) of -4% and an inhibition at 1 µM (SRPK1) of 1%. It also gave an inhibition at 1 µM (TEK (Tie2)) of 5%.
